Experiments:
Type in all cases: cell-based
caspase-3 = assay: Western blotting of caspase-3 activation (apoptosis inhibitory effect) in okadaic acid-treated human neuroblasts; details: SH-SY5Y cells, 100 nM okadaic acid, 0.3 mM S1PC, 6 hours, FIG. 3
Procedure: (§1) Human neuroblastoma cell line SH-SY5Y cells were cultured in a Dulbecco's modified Eagle medium supplemented with 10% fetal bovine serum, and antibiotic penicillin-streptomycin solution, and the cultured cells were used as cells for evaluation test.
(§2) 100 nM okadaic acid and 0.3 mM S1PC were added to the human neuroblasts for evaluation test prepared in (2) above, and the cells were cultured for 6 hours. A cell extract was prepared in the same manner as in (a) above, and analyzed by western blotting in accordance with a usual method. An anti-caspase-3 antibody (manufactured by Cell Signaling Technology, Inc.) and an anti-β-actin antibody (manufactured by Wako Pure Chemical Industries, Ltd.) were used as antibodies.

tau protein = assay: Western blotting of tau protein (tau protein-removing effect) in okadaic acid-treated human neuroblasts; details: SH-SY5Y cells
Procedure: as §1
(§3) Okadaic acid (at a concentration of 100 nM) and S1PC (at concentrations of 0.03, 0.1, and 0.3 mM) were added to the human neuroblasts for evaluation test prepared in (2) above, and the cells were cultured for 6 hours. After culturing, the cultured cells were washed with a phosphate buffer, and then lysed with RIPA cell lysis buffer (manufactured by Millipore Corporation) diluted 10-fold with purified water containing a protease/phosphatase cocktail inhibitor (manufactured by Thermo Fisher Scientific K.K.). After that, centrifugation was conducted (at 10000 rpm, for 10 minutes, at 4° C.), and the supernatant was used as a cell extract. This cell extract was used to conduct analysis by western blotting in accordance with a usual method. An anti-Atg7 antibody (manufactured by Cell Signaling Technology, Inc.), an anti-4T-tau antibody (manufactured by Wako Pure Chemical Industries, Ltd.), and an anti-β-actin antibody (manufactured by Wako Pure Chemical Industries, Ltd.) were used as antibodies.
as §2, with “10” for “100”, “acid,” for “acid and”, “S1PC, and 10 mM autophagy inhibitor (3-methyladenine)” for “S1PC”, “24” for “6”, “anti-Atg7” for “anti-caspase-3”, “Inc.), an anti-4T-tau antibody (manufactured by Wako Pure Chemical Industries, Ltd.),” for “Inc.)”
as §2, with “50” for “100”, “S1PC or SAC” for “S1PC”, “anti-4T-tau” for “anti-caspase-3”, “Wako Pure Chemical Industries, Ltd.)” for “Cell Signaling Technology, Inc.)”

Atg7 = assay: Western blotting of Atg7 expression (autophagy activation) in okadaic acid-treated human neuroblasts; details: SH-SY5Y cells
Procedure: as §1
as §3, with “An anti-Atg7 antibody (manufactured by Cell Signaling Technology, Inc.), an anti-4T-tau antibody (manufactured by Wako Pure Chemical Industries, Ltd.), and an anti-β-actin antibody (manufactured by Wako Pure Chemical Industries, Ltd.) were used as antibodies.” left out
10 nM okadaic acid, 0.3 mM S1PC, and 10 mM autophagy inhibitor (3-methyladenine) were added to the human neuroblasts for evaluation test prepared in (2) above, and the cells were cultured for 24 hours. A cell extract was prepared in the same manner as in (a) above, and analyzed by western blotting in accordance with a usual method. […]

LC3B-II = assay: Western blotting of LC3B-II expression in rotenone-treated human neuroblasts; details: SH-SY5Y cells, 10 μM rotenone, 0.3 mM S1PC, 1 mM 3-methyladenine, 3 hours, FIG. 5
Procedure: as §1
as §2, with “10 μM rotenone,” for “100 nM okadaic acid and”, “S1PC, and 1 mM autophagy inhibitor (3-methyladenine)” for “S1PC”, “3” for “6”, “anti-α-synuclein antibody, an anti-LC3B” for “anti-caspase-3”, “Inc.),” for “Inc.)”, “MEDICAL & BIOLOGICAL LABORATORIES CO., LTD.)” for “Wako Pure Chemical Industries, Ltd.)”

α-synuclein protein = assay: Western blotting of α-synuclein protein (α-synuclein protein-removing effect) in rotenone-treated human neuroblasts; details: SH-SY5Y cells, 3 hours
Procedure: as §1
as §2, with “10 μM rotenone,” for “100 nM okadaic acid and”, “S1PC, and 1 mM autophagy inhibitor (3-methyladenine)” for “S1PC”, “3” for “6”, “anti-α-synuclein antibody, an anti-LC3B” for “anti-caspase-3”, “Inc.),” for “Inc.)”, “MEDICAL & BIOLOGICAL LABORATORIES CO., LTD.)” for “Wako Pure Chemical Industries, Ltd.)”
500 nM rotenone, and 0.3 mM S1PC or SAC were added to the human neuroblasts for evaluation test prepared in (2), and the cells were cultured for 3 hours. A cell extract was prepared in the same manner as in (a) above, and analyzed by western blotting in accordance with a usual method. An anti-α-synuclein antibody, an anti-LC3B antibody (manufactured by Cell Signaling Technology, Inc.), and an anti-β-actin antibody (manufactured by MEDICAL & BIOLOGICAL LABORATORIES CO., LTD.) were used. […] Therefore, S1PC is considered to be useful for Parkinson's disease, for example, accompanied by α-synuclein protein accumulation.

[1] = 10 nM okadaic acid, 0.3 mM S1PC, 10 mM 3-methyladenine, 24 hours, FIG. 2
[2] = okadaic acid 100 nM, S1PC 0.03, 0.1 and 0.3 mM, 6 hours, FIG. 1

Compound: CC=CSCC(N)C(=O)O (centres unmarked) [S1PC, S-1-propenylcysteine]
- activation of caspase-3 (caspase-3): suppressed
- tau protein-removing effect with autophagy inhibitor (tau protein; [1]): suppressed by adding the autophagy inhibitor
- tau protein-removing effect compared with SAC (tau protein; 50 nM okadaic acid, 0.3 mM S1PC or SAC, 6 hours, FIG. 4): superior to SAC
- tau protein (tau protein; 50 nM okadaic acid, 0.3 mM, 6 hours, FIG. 4): decreased
- removal of tau proteins (tau protein; [2]): promoted removal
- Atg7 expression-increasing effect with autophagy inhibitor (Atg7; [1]): suppressed by adding the autophagy inhibitor
- Atg7 expression (Atg7; [2]): increased
- LC3B-II expression-increasing effect with autophagy inhibitor (LC3B-II): suppressed by adding the autophagy inhibitor
- α-synuclein protein-removing effect compared with SAC (α-synuclein protein; 500 nM rotenone, 0.3 mM S1PC or SAC, FIG. 6): superior to SAC
- α-synuclein protein (α-synuclein protein; 500 nM rotenone, 0.3 mM, FIG. 6): decreased
- α-synuclein protein-removing effect with autophagy inhibitor (α-synuclein protein; 10 μM rotenone, 0.3 mM S1PC, 1 mM 3-methyladenine, FIG. 5): suppressed by adding the autophagy inhibitor

Reference: patent US12324795B2, “Autophagy activating agent” (WAKUNAGA PHARMACEUTICAL CO., LTD., priority 2018, dated 2025)
